How the values were obtained:
Type in all cases: in vivo
[1] = tested on: Ghrelin; test: Real-time PCR gene expression in peripheral tissues: ghrelin; details: stomach; C57bl6j mice, high fat diet, 100 mg/kg/body weight in diet, 5 weeks
Procedure: (§1) The expression of 45 genes was measured by real-time PCR in peripheral tissues to identify genes that were differentially expressed in response to oral administration of oleoylethanolamide (OEA) or a non-hydrolysable OEA analog (KDS 5104), which affect satiety, lipid metabolism, fat utilization, food intake, and body fat mass.
(§2) Animals, diet, and experimental design. Adult male C57bl6j mice purchased at 8 weeks of age were individually housed and maintained ad libitum on high fat diet and water for 2 weeks. Seven mice were randomly allocated in 3 groups and fed with a high fat diet (lipids represented 50% of daily energy) for 2 weeks. […]
(§3) RNA extraction and gene expression. […] The RNA concentration was determined on nanodrop from the absorbance at 260 nm. […] Real-time quantitative PCR (RT-qPCR) were performed on cDNA obtained as described above using a high through put system (Biomek 3000, Beckman & Coulter, Fullerton, USA) and a Lightcycler 480 (Roche/Hitachi, Basel, Switzerland) with SYBR Green Master mix+kit (Eurogentec, Philadelphia, USA). […] Values were expressed as ratio of RNA levels relative to control mice (diets with 0 mg of OEA/kg/body weight) using ΔΔ(Ct) (Livak K J & Schmittgen T D, 2001, Methods 25:402-8). Gene expression of the following genes was measured (abbreviation and GenBank Accession shown in parentheses). […]

[2] = tested on: Uncoupling protein 2 (UCP2); test: Real-time PCR gene expression in peripheral tissues: UCP2; details: muscle; C57bl6j mice, high fat diet, 100 mg/kg/body weight in diet, 5 weeks
Procedure: as §1, §2, §3

[3] = tested on: Sterol regulatory element binding protein-C 2 (SREBP2 1); test: Real-time PCR gene expression in peripheral tissues: SREBP2; details: liver; C57bl6j mice, high fat diet, 100 mg/kg/body weight in diet, 5 weeks
Procedure: as §1, §2, §3

[4] = tested on: Glucose 6-phosphatase (G6P); test: Real-time PCR gene expression in peripheral tissues: G6P; details: liver; C57bl6j mice, high fat diet, 100 mg/kg/body weight in diet, 5 weeks
Procedure: as §1, §2, §3

[5] = tested on: Protein convertase subtilisin/kexin type 9 (PCSK 9); test: Real-time PCR gene expression in peripheral tissues: PCSK9; details: liver; C57bl6j mice, high fat diet, 100 mg/kg/body weight in diet, 5 weeks
Procedure: as §1, §2, §3

[6] = tested on: overall gene expression pattern; test: Multivariate statistical analysis of overall gene expression pattern; details: C57bl6j mice, high fat diet, 100 mg/kg/body weight in diet, 5 weeks
Procedure: as §1, §2, §3

[7] = tested on: Peroxisome proliferator activated receptor alpha (PPAR α); test: Real-time PCR gene expression in peripheral tissues: PPAR α; details: proximal intestine; C57bl6j mice, high fat diet, 100 mg/kg/body weight in diet, 5 weeks
Procedure: as §1, §2, §3

[8] = tested on: Stearoyl-Coenzyme A desaturase 1 (SCD 1); test: Real-time PCR gene expression in peripheral tissues: SCD1; details: C57bl6j mice, high fat diet, 100 mg/kg/body weight in diet, 5 weeks
Procedure: as §1
(§4) Animals, diet, and experimental design. Adult male C57bl6j mice purchased at 8 weeks of age were individually housed and maintained ad libitum on high fat diet and water for 2 weeks. Seven mice were randomly allocated in 3 groups and fed with a high fat diet (lipids represented 50% of daily energy) for 2 weeks. For one kilogram, the composition of the high fat diet was: 235 g casein, 201 g saccharose, 3.5 g L-cystine, 85 g starch, 116 g maltodextrin, 60 g cellulose, 12 g vitamins mix (AIN-93M, UPAE, Jouy-en-Josas, France), 51.5 g mineral mix (AIN-93Vx, UPAE, Jouy-en-Josas, France), and 236 g lard. Then, either OEA or KDS 5104 was added to the diet at a concentration of 100 mg/kg/body weight. The mice were kept under treatment for 5 weeks.
(§5) Sampling. At the end of the experimental period, mice were sacrificed by blood drawing (cardiac puncture) after anesthesia with isoflurane. Plasma was obtained by centrifugation (1,000 g for 10 min at 4° C.). Mesenteric, epididymal, inguinal and peritoneal adipose depots, as well as liver, stomach, small intestine mucosa, pancreas, and gastrocnemian muscle were removed and frozen into liquid nitrogen. Plasma, urine, feces, and organ samples were kept at −80° C. until analysis.
(§6) RNA extraction and gene expression. Total RNA from liver, intestine mucous membrane, adipose tissues, gastrocnemian muscle, pancreas and stomach were extracted with TRIzol reagent (Invitrogen, Carlsbad, USA) according to the manufacturer's instruction. The RNA concentration was determined on nanodrop from the absorbance at 260 nm. Retro-transcription PCRs to synthesize cDNA were performed using an Applied Biosystem Thermal Cycler 2720 and Superscript II (Invitrogen, Carlsbad, USA) according to manufacturer's protocol. Real-time quantitative PCR (RT-qPCR) were performed on cDNA obtained as described above using a high through put system (Biomek 3000, Beckman & Coulter, Fullerton, USA) and a Lightcycler 480 (Roche/Hitachi, Basel, Switzerland) with SYBR Green Master mix+kit (Eurogentec, Philadelphia, USA). Primers for the selected genes were generated using online informatics assistance from the Lightcycler manufacturer (Roche). Databases used to identify the genes were (1) the NCBI database (GenBank) and (2) the IHOP (Information Hyperlinked over Protein) database (www.ihop-net.org/UniPub/iHOP/bng/). Values were expressed as ratio of RNA levels relative to control mice (diets with 0 mg of OEA/kg/body weight) using ΔΔ(Ct) (Livak K J & Schmittgen T D, 2001, Methods 25:402-8). Gene expression of the following genes was measured (abbreviation and GenBank Accession shown in parentheses).
(§7) Statistical analysis. […] Statistical analysis of physiological parameters and gene expression data was performed by one-way ANOVA on Statview software (SAS Institute, Cary, USA). Daily food intake was analyzed using two-way ANOVA on Statview software. Statistical significance was set up at the P<0.05 level, the P<0.01 level and the P<0.001 level. For statistical analysis of the gene expression data, values were calculated relative to 18S expression for each mouse and gene.

[9] = tested on: Sterol regulatory element binding protein-c 1 (SREBP 1c); test: Real-time PCR gene expression in peripheral tissues: SREBP1c; details: C57bl6j mice, high fat diet, 100 mg/kg/body weight in diet, 5 weeks
Procedure: as §1, §4, §5, §6, §7

[10] = tested on: Fatty Acid Synthase (FAS 1); test: Real-time PCR gene expression in peripheral tissues: FAS; details: liver; C57bl6j mice, high fat diet, 100 mg/kg/body weight in diet, 5 weeks
Procedure: as §1, §2, §3

[11] = tested on: CPT1; test: Real-time PCR gene expression in peripheral tissues: CPT1; details: C57bl6j mice, high fat diet, 100 mg/kg/body weight in diet, 5 weeks
Procedure: as §1, §4, §5, §6, §7

[12] = tested on: G protein coupled receptor 119 (GPR 119); test: Real-time PCR gene expression in peripheral tissues: GPR119; details: proximal intestine; C57bl6j mice, high fat diet, 100 mg/kg/body weight in diet, 5 weeks
Procedure: as §1, §2, §3

[13] = tested on: Leptin; test: Real-time PCR gene expression in peripheral tissues: leptin; details: C57bl6j mice, high fat diet, 100 mg/kg/body weight in diet, 5 weeks
Procedure: as §1, §4, §5, §6, §7

[14] = tested on: Fatty acid transporter/cluster of differentiation 36 (FAT/CD 36); test: Real-time PCR gene expression in peripheral tissues: FAT/CD36; details: C57bl6j mice, high fat diet, 100 mg/kg/body weight in diet, 5 weeks
Procedure: as §1, §4, §5, §6
Statistical analysis. Results are presented as means±standard error of the means (SEM). Statistical analysis of physiological parameters and gene expression data was performed by one-way ANOVA on Statview software (SAS Institute, Cary, USA). Daily food intake was analyzed using two-way ANOVA on Statview software. Statistical significance was set up at the P<0.05 level, the P<0.01 level and the P<0.001 level. For statistical analysis of the gene expression data, values were calculated relative to 18S expression for each mouse and gene.

CCCCCCCC/C=C\CCCCCCCC(=O)N[C@H](C)CO [KDS 5104, (Z)—(R)-9-octadecenamide, N-(2-hydroxyethyl, 1-methyl)]
ghrelin s, ratio of RNA levels relative to control mice [1]: 1.04 | UCP2 m, ratio of RNA levels relative to control mice [2]: 1.11 | SREBP2 l, ratio of RNA levels relative to control mice [3]: 1.13 | G6P l, ratio of RNA levels relative to control mice [4]: 2.12 | PCSK9 l, ratio of RNA levels relative to control mice [5]: 1.34 | overall gene expression pattern (multivariate statistical analysis) [6]: significant shift | PPAR α i, ratio of RNA levels relative to control mice [7]: 1.02 | SCD 1 at ep, ratio of RNA levels relative to control mice ([8]; epidydimal adipose tissue): 1.24 | SCD1 l, ratio of RNA levels relative to control mice ([8]; liver): −1.91 | SCD 1 at per, ratio of RNA levels relative to control mice ([8]; peritoneal adipose tissue): 1.51 | SREBP1c at ep, ratio of RNA levels relative to control mice ([9]; epidydimal adipose tissue): 1.00 | SREBP1c l, ratio of RNA levels relative to control mice ([9]; liver): 1.47 | SREBP1c at per, ratio of RNA levels relative to control mice ([9]; peritoneal adipose tissue): −1.35 | FAS l, ratio of RNA levels relative to control mice [10]: 2.47 | CPT1 l, ratio of RNA levels relative to control mice ([11]; liver): 1.06 | CPT1 p, ratio of RNA levels relative to control mice ([11]; pancreas): 1.80 | CPT1 i, ratio of RNA levels relative to control mice ([11]; proximal intestine): 1.63 | GPR119 i, ratio of RNA levels relative to control mice [12]: 4.95 | leptin at ep, ratio of RNA levels relative to control mice ([13]; epidydimal adipose tissue): 1.35 | leptin at per, ratio of RNA levels relative to control mice ([13]; peritoneal adipose tissue): −1.32 | leptin s, ratio of RNA levels relative to control mice ([13]; stomach): −1.02 | FAT/CD36 at ep, ratio of RNA levels relative to control mice ([14]; epidydimal adipose tissue): −2.24 | FAT/CD36 l, ratio of RNA levels relative to control mice ([14]; liver): 0.88
